EC50 data for five compounds are collected here from US12723063B2, “GIPR-agonist compounds” (Eli Lilly and Company, priority 2019, dated 2026).

Each structure is given as a SMILES string.

Common to all, as to assay: cAMP functional assay (HTRF) in HEK293 cells in presence of 0.1% casein
What all share (type): cell-based
A general note: In TR-FRET formats the signal depends on donor and acceptor labels being close together.

The target of assay [1] is T1, human glucose-dependent insulinotropic peptide receptor (GIPR) (Homo sapiens, UniProt P48546).
T1 construct: expressed in transfected cells; host or cells: HEK293
T1 sequence (P48546 22-466): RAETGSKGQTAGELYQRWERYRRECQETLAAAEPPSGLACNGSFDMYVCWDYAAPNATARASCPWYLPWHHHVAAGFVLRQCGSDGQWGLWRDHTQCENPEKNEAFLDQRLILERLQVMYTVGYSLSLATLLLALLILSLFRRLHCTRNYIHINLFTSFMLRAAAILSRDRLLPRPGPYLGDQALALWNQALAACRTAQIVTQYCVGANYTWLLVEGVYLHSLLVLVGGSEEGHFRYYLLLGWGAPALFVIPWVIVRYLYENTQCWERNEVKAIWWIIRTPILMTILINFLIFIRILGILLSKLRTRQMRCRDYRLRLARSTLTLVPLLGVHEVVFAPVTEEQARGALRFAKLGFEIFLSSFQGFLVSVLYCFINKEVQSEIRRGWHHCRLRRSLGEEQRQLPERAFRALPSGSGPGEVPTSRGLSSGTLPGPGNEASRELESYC
The note with it: HEK293 cells expressing human GIPR, geometric mean, read-out: hGIPR cAMP Rel EC50 nM (SEM, n). The procedure:
(§1) Each receptor over-expressing cell line (20 μl) is treated with the test peptide in DMEM (Gibco Cat #31053) supplemented with 0.1% Casein (Sigma Cat #C4765), 250 μM IBMX, 1× GlutaMAX™ (Gibco Cat #35050), and 20 mM HEPES (HyClone Cat #SH30237.01) in a 20 μl assay volume. After incubating for 60 minutes at room temperature, the resulting increase in intracellular CAMP is quantitatively determined using the CisBio CAMP Dynamic 2 HTRF Assay Kit (62AM4PEJ). The Lysis buffer containing cAMP-d2 conjugate (20 μl) and the antibody anti-cAMP-Eu3+-Cryptate (20 μl) are then added to determine the cAMP level. After incubating 60 minutes at room temperature, HTRF signal is detected with an Envision 2104 plate reader (PerkinElmer). Fluorescent emission at 620 nm and at 665 nm is measured and the ratio between 620 nm and at 665 nm is calculated and then are converted to nM cAMP per well using a cAMP standard curve. Dose response curves of compounds are plotted as the percentage of stimulation normalized to minimum (buffer only) and maximum (maximum concentration of each control ligand) values and analyzed using a four parameter non-linear regression fit with a variable slope (Genedata Screener 13). EC50 is the concentration of compound causing half-maximal simulation in a dose response curve. A relative EC50 value is derived by non-linear regression analysis using the percent maximal response vs, the concentration of peptide added, fitted to a four-parameter logistic equation.
(§2) Intracellular cAMP levels are determined by extrapolation using a standard curve. Dose response curves of compounds are plotted as the percentage of stimulation normalized to minimum (buffer only) and maximum (maximum concentration of each control ligand) values and analyzed using a four-parameter non-linear regression fit with a variable slope (Genedata Screener 13). EC50 is the concentration of compound causing half-maximal simulation in a dose response curve. Each relative EC50 value for the geometric mean calculation is determined from a curve fitting.
(§3) Concentration response curves of compounds are plotted as the percentage of stimulation normalized to minimum (buffer only) and maximum (maximum concentration of each control ligand) values and analyzed using a four-parameter non-linear regression fit with a variable slope (Genedata Screener 13). EC50 is the concentration of compound causing half-maximal simulation in a dose response curve. […] The standard error of the mean is reported:
(§4) [formula] • The log transform accounts for the EC50 values falling on a multiplicative, rather than an arithmetic scale.
(§5) For illustration, as shown by Example 1, the peptide is tested in 8 runs of the hGIPR CAMP assay. […] Accordingly, each Example will use the geometric mean of those values to normalize the Example assay runs.

Assay [2] has as its target T2, human GLP-1 receptor (GLP-1R) (Homo sapiens, UniProt P43220).
T2 construct: expressed in transfected cells; host or cells: HEK293
The note with it: HEK293 cells expressing human GLP-1R, geometric mean, read-out: hGLP1R cAMP Rel EC50 nM (SEM, n). The procedure:
as §1, §2, §3, §4, §5

Assay [3] deals with T3, human glucagon receptor (GcgR) (Homo sapiens, UniProt P47871).
T3 construct: expressed in transfected cells; host or cells: HEK293
T3 sequence (P47871 26-477): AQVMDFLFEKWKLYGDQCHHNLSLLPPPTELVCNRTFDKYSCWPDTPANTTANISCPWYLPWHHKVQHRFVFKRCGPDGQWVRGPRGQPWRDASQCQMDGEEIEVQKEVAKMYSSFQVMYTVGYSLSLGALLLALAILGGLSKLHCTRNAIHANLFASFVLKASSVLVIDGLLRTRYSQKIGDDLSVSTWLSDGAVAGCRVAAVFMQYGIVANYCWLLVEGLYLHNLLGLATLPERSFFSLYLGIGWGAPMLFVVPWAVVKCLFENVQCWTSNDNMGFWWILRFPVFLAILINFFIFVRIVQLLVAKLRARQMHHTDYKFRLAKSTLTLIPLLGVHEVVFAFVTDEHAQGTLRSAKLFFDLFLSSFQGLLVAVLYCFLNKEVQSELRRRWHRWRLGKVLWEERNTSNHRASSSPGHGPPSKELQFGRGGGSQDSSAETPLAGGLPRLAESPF
The following applies: HEK293 cells expressing human GcgR, geometric mean, read-out: hGcgR cAMP Rel EC50 nM (SEM, n). The method, then:
as §1, §2, §3, §4, §5

T2 sequence (P43220 24-463): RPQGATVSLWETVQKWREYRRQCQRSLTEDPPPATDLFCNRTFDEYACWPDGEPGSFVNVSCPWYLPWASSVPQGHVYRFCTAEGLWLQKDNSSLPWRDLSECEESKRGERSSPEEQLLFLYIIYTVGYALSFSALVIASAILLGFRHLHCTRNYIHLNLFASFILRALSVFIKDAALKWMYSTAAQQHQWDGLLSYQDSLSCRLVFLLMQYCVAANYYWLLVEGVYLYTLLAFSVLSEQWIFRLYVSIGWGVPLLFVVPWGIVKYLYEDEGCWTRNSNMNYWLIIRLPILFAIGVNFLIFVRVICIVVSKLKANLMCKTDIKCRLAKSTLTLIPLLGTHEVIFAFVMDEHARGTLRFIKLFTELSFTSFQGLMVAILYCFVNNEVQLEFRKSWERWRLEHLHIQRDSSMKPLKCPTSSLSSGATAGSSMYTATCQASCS

For the compound `CC[C@H](C)[C@H](NC(=O)[C@H](CO)NC(=O)[C@H](Cc1ccc(O)cc1)NC(=O)[C@H](CC(=O)O)NC(=O)[C@H](CO)NC(=O)[C@@H](NC(=O)[C@H](Cc1ccccc1)NC(=O)[C@@H](NC(=O)CNC(=O)[C@H](CCC(=O)O)NC(=O)[C@@H](C)NC(=O)[C@@H](N)Cc1ccc(O)cc1)[C@@H](C)O)[C@@H](C)CC)C(=O)N[C@@H](CC(C)C)C(=O)N[C@@H](CC(C)C)C(=O)N[C@@H](CC(=O)O)C(=O)N[C@@H](CCCCN)C(=O)N[C@@H](CCCCNC(=O)COCCOCCNC(=O)COCCOCCNC(=O)CC[C@H](NC(=O)CCCCCCCCCCCCCCCCCCC(=O)O)C(=O)O)C(=O)N[C@@H](C)C(=O)N[C@@H](CCC(N)=O)C(=O)NC(C)(C)C(=O)N[C@@H](CC(=O)O)C(=O)N[C@@H](Cc1ccccc1)C(=O)N[C@H](C(=O)N[C@@H](CC(N)=O)C(=O)N[C@@H](Cc1c[nH]c2ccccc12)C(=O)N[C@@H](CC(C)C)C(=O)N[C@@H](CC(C)C)C(=O)N[C@@H](C)C(=O)N[C@@H](CCC(N)=O)C(=O)NCC(=O)N1CCC[C@H]1C(=O)N[C@@H](CO)C(=O)N[C@@H](CO)C(=O)NCC(=O)N[C@@H](C)C(=O)N1CCC[C@H]1C(=O)N1CCC[C@H]1C(=O)N1CCC[C@H]1C(=O)N[C@@H](CO)C(N)=O)C(C)C` [Example 1], the results for the EC50 in assay [1], in assay [2] and in assay [3] were 0.0476 nM, over 5000 nM and 575 nM, respectively.

As for `CC[C@H](C)[C@H](NC(=O)[C@H](CO)NC(=O)[C@H](Cc1ccc(O)cc1)NC(=O)[C@H](CC(=O)O)NC(=O)[C@H](CO)NC(=O)[C@@H](NC(=O)[C@H](Cc1ccccc1)NC(=O)[C@@H](NC(=O)CNC(=O)[C@H](CCC(=O)O)NC(=O)[C@@H](C)NC(=O)[C@@H](N)Cc1ccc(O)cc1)[C@@H](C)O)[C@@H](C)CC)C(=O)N[C@@H](CC(C)C)C(=O)N[C@@H](CC(C)C)C(=O)N[C@@H](CC(=O)O)C(=O)N[C@@H](CCCCN)C(=O)N[C@@H](CCCCNC(=O)COCCOCCNC(=O)COCCOCCNC(=O)CC[C@H](NC(=O)CCCCCCCCCCCCCCCCC(=O)O)C(=O)O)C(=O)N[C@@H](C)C(=O)N[C@@H](CCC(N)=O)C(=O)NC(C)(C)C(=O)N[C@@H](CC(=O)O)C(=O)N[C@@H](Cc1ccccc1)C(=O)N[C@H](C(=O)N[C@@H](CC(N)=O)C(=O)N[C@@H](Cc1c[nH]c2ccccc12)C(=O)N[C@@H](CC(C)C)C(=O)N[C@@H](CC(C)C)C(=O)N[C@@H](C)C(=O)N[C@@H](CCC(N)=O)C(=O)NCC(=O)N1CCC[C@H]1C(=O)N[C@@H](CO)C(=O)N[C@@H](CO)C(=O)NCC(=O)N[C@@H](C)C(=O)N1CCC[C@H]1C(=O)N1CCC[C@H]1C(=O)N1CCC[C@H]1C(=O)N[C@@H](CO)C(N)=O)C(C)C` [Example 2], the EC50 was 0.0123 nM in assay [1], over 5000 nM in assay [2] and 608 nM in assay [3].

For the compound `CC[C@H](C)[C@H](NC(=O)[C@H](Cc1ccccc1)NC(=O)[C@@H](NC(=O)CNC(=O)[C@H](CCC(=O)O)NC(=O)C(C)(C)NC(=O)[C@@H](N)Cc1ccc(O)cc1)[C@@H](C)O)C(=O)N[C@@H](CO)C(=O)N[C@@H](CC(=O)O)C(=O)N[C@@H](Cc1ccc(O)cc1)C(=O)N[C@@H](CO)C(=O)N[C@H](C(=O)N[C@@](C)(CC(C)C)C(=O)N[C@@H](CC(C)C)C(=O)N[C@@H](CC(=O)O)C(=O)N[C@@H](CCCCN)C(=O)N[C@@H](CCCCNC(=O)COCCOCCNC(=O)COCCOCCNC(=O)CC[C@H](NC(=O)CCCCCCCCCCCCCCCCCCC(=O)O)C(=O)O)C(=O)N[C@@H](Cc1c[nH]cn1)C(=O)N[C@@H](CCC(N)=O)C(=O)NC(C)(C)C(=O)N[C@@H](CC(=O)O)C(=O)N[C@@H](Cc1ccccc1)C(=O)N[C@H](C(=O)N[C@@H](CCC(=O)O)C(=O)N[C@@H](Cc1ccncc1)C(=O)N[C@@H](CC(C)C)C(=O)N[C@@H](CC(C)C)C(=O)N[C@@H](CCC(=O)O)C(=O)N[C@@H](C)C(=O)NCC(=O)N1CCC[C@H]1C(=O)N[C@@H](CO)C(=O)N[C@@H](CO)C(=O)NCC(=O)N[C@@H](C)C(=O)N1CCC[C@H]1C(=O)N1CCC[C@H]1C(=O)N1CCC[C@H]1C(=O)N[C@@H](CO)C(N)=O)C(C)C)[C@@H](C)CC` [Example 3], the EC50 in assay [1] is 0.0178 nM; in assay [2], over 5000 nM; in assay [3] it was 1250 nM.

For the compound `CC[C@H](C)[C@H](NC(=O)[C@H](Cc1ccccc1)NC(=O)[C@@H](NC(=O)CNC(=O)[C@H](CCC(=O)O)NC(=O)C(C)(C)NC(=O)[C@@H](N)Cc1ccc(O)cc1)[C@@H](C)O)C(=O)N[C@@H](CO)C(=O)N[C@@H](CC(=O)O)C(=O)N[C@@H](Cc1ccc(O)cc1)C(=O)N[C@@H](CO)C(=O)N[C@H](C(=O)N[C@@](C)(CC(C)C)C(=O)N[C@@H](CC(C)C)C(=O)N[C@@H](CC(=O)O)C(=O)N[C@@H](CCCN)C(=O)N[C@@H](CCCCNC(=O)COCCOCCNC(=O)COCCOCCNC(=O)CC[C@H](NC(=O)CCCCCCCCCCCCCCCCCCC(=O)O)C(=O)O)C(=O)N[C@@H](Cc1c[nH]cn1)C(=O)N[C@@H](CCC(N)=O)C(=O)NC(C)(C)C(=O)N[C@@H](CC(=O)O)C(=O)N[C@@H](Cc1ccccc1)C(=O)N[C@H](C(=O)N[C@@H](CCC(=O)O)C(=O)N[C@@H](Cc1ccncc1)C(=O)N[C@@H](CC(C)C)C(=O)N[C@@H](CC(C)C)C(=O)N[C@@H](CCC(=O)O)C(=O)N[C@@H](C)C(=O)NCC(=O)N1CCC[C@H]1C(=O)N[C@@H](CO)C(=O)N[C@@H](CO)C(=O)NCC(=O)N[C@@H](C)C(=O)N1CCC[C@H]1C(=O)N1CCC[C@H]1C(=O)N1CCC[C@H]1C(=O)N[C@@H](CO)C(N)=O)C(C)C)[C@@H](C)CC` [Example 4], the EC50 is 0.0182 nM in assay [1], over 5000 nM in assay [2] and 1690 nM in assay [3].

`CC[C@H](C)[C@H](NC(=O)[C@H](CCCCN)NC(=O)[C@H](CC(=O)O)NC(=O)[C@H](CC(C)C)NC(=O)[C@](C)(CC(C)C)NC(=O)[C@@H](NC(=O)[C@H](CO)NC(=O)[C@H](Cc1ccc(O)cc1)NC(=O)[C@H](CC(=O)O)NC(=O)[C@H](CO)NC(=O)[C@@H](NC(=O)[C@H](Cc1ccccc1)NC(=O)[C@@H](NC(=O)CNC(=O)[C@H](CCC(=O)O)NC(=O)C(C)(C)NC(=O)[C@@H](N)Cc1ccc(O)cc1)[C@@H](C)O)[C@@H](C)CC)[C@@H](C)CC)C(=O)N[C@@H](Cc1c[nH]cn1)C(=O)N[C@@H](CCC(N)=O)C(=O)NC(C)(C)C(=O)N[C@@H](CC(=O)O)C(=O)N[C@@H](Cc1ccccc1)C(=O)N[C@H](C(=O)N[C@@H](CCC(=O)O)C(=O)N[C@@H](Cc1ccc(O)cc1)C(=O)N[C@@H](CCCCNC(=O)COCCOCCNC(=O)COCCOCCNC(=O)CC[C@H](NC(=O)CCCCCCCCCCCCCCCCCCC(=O)O)C(=O)O)C(=O)N[C@@H](CC(C)C)C(=O)N[C@@H](CCC(=O)O)C(=O)NCC(=O)NCC(=O)N1CCC[C@H]1C(=O)N[C@@H](CO)C(=O)N[C@@H](CO)C(=O)NCC(=O)N[C@@H](C)C(=O)N1CCC[C@H]1C(=O)N1CCC[C@H]1C(=O)N1CCC[C@H]1C(=O)N[C@@H](CO)C(N)=O)C(C)C` [Example 5]: the EC50 was 0.0148 nM in assay [1], over 5000 nM in assay [2] and over 5000 nM in assay [3].

Broadly, the EC50 is the concentration at which the effect is half-maximal.
